Assay results reported in patent US20170027902A1, “Use of a Composition Comprising a Flavonol, A Flavonoid, and a Fatty Acid in the Treatment of Oxidative Injuries Due to Mitochondrial Dysfunction” (priority 2014, published 2017).

Test system: primary mouse cortical cultures
Assay: Confocal imaging of calcium transients and mitochondrial membrane potential
Type: cell-based
Experimental: Embryonic day 16 timed pregnant CD1 out-bred mice were obtained from Charles River Laboratories (Charles River; QC, Canada). Primary cortical neuron cultures were prepared from cerebral cortices of wild type (WT) CD1 mouse embryos as described previously, with the following modifications. Pregnant CD1 females were heavily anaesthetized with isoflurane vapor (Benson Medical Industries, Inc., Markham, ON) before being euthanized by decapitation. The embryonic day 16 (E16) fetuses were immediately removed from the sacrificed pregnant females by cesarean section and placed in ice-cold Hank's Balanced Salt Solution (HBSS) (GIBCO; Invitrogen, Amarillo, Calif.). The meninges were removed from the brains and cortices were isolated under a dissecting microscope. The cortices from each embryo were placed in individual wells of a 24-well plate (Corning; Lowell, Mass.), containing 1 ml of ice-cold PBS (GIBCO; […] Under sterile conditions, the tissue was briefly minced, transferred to 15 ml sterile conical tubes (Corning; Lowell, Mass.) and centrifuged at 350×g for 3 min at room temperature. The dissecting solution was discarded and the cortical neurons were then dissociated trituration with fire-polished glass pipettes followed by incubating in 1 ml of 0.1% trypsin solution (0.1% w/v trypsin (Invitrogen, Amarillo, Calif.) in PBS with 1 mM Mg^2+ and 13 mM glucose) at 37° C. for 15 min. The trypsinization was inhibited by the addition of 0.5 ml of trypsin inhibitor solution that also contained DNase I (0.06% w/v trypsin inhibitor (Invitrogen; Amarillo, Calif.) and 0.01% DNase I (Invitrogen; […] The tubes were mixed briefly and the cells were centrifuged at 350×g for 3 min at room temperature. The trypsin and inhibitor solutions were discarded and each cell pellet was suspended in 1 ml of cortical neuron plating medium (Neurobasal medium (Invitrogen, Amarillo, Calif.) with 10% fetal bovine serum (GIBCO; Invitrogen; Amarillo, Calif.), 2% B27 supplement, 1 mM L-glutamine, and 1% Gentamycin (Invitrogen; […] Cortical neurons were plated in 96-well plates (Corning; Lowell, Mass.) that were pre-coated with poly-D-lysine (PDL; Sigma-Aldrich; Oakville, ON) according to the procedure described by the manufacturer. Briefly, plates were coated immediately before use with 100 μg/ml PDL for 5-10 min (50 μl/well), washed three times with tissue-culture grade water and left to dry for 2 h before cells were introduced. Cortical neurons were plated at a concentration of 1×10^6 cells/ml (100 µl/well) and medium was completely changed the day after plating to serum-free cortical neuron medium (Neurobasal medium with 2% B27 supplement, 5 mM HEPES, 0.5 mM L-glutamine, and 20 μg/ml Gentamycin), which was replaced every 3 days in culture. Cultures were maintained in a humidified, 37° C. incubator with 5% CO2. Experiments were performed on the eighth day in vitro (DIV10). For measurements of mitochondrial membrane potential (ΔΨm), cells were loaded with 25 nM tetrannethylrhodamine methyl ester (TMRM) for 30 min at room temperature and the dye was present during the experiment. TMRM is used in the redistribution mode to assess ΔΨm with a reduction in TMRM fluorescence indicating mitochondrial depolarization. Neurons were loaded for 30 min at room temperature with X-rhod-1 AM (0.5 μM) and Fluo-3 AM (0.5 μM) (Molecular Probes, Invitrogen) prior to imaging in HEPES-buffered salt solution (HBSS) composed of (mM): 156 NaCl, 3 KCl, 2 MgSO4, 1.25 KH2PO4, 2 CaCl2, 10 glucose and 10 HEPES, pH adjusted to 7.35 with NaOH. Confocal images were obtained using a 510 CLSM (Zeiss, Thornwood, N.Y.) equipped with a META detection system and a […] oil-immersion objective. The 488 nm Argon laser line was used to excite fluo-3 fluorescence, which was measured using a bandpass filter from 505 to 550 nm. Illumination intensity was kept to a minimum (at 0.1-0.2% of laser output) to avoid phototoxicity and the pinhole was set to give an optical slice of 2 μm. […]

| Compound | [Ca2+]c oscillations stimulated by Q (5 μM, depletion of ER Ca2+ stores) | TMRM fluorescence (added after Q and thapsigargin) | [Ca2+]c (added after Q and thapsigargin) |
| --- | --- | --- | --- |
| C/C=C(/C)C(=O)O[C@H]1C(C)=C2[C@H]([C@@H]1OC(=O)CCCCCCC)[C@@](C)(OC(C)=O)C[C@H](OC(=O)CCC)[C@@]1(O)[C@H]2OC(=O)[C@@]1(C)O [thapsigargin] | blocked |  |  |
| N#CC(C#N)=NNc1ccc(OC(F)(F)F)cc1 [FCCP, carbonyl cyanide-4-(trifluoromethoxy)phenylhydrazone] |  | complete loss | sharp increase |
